For test [1], the system named is JIMT-1 human breast cancer cell line. Briefly: Cell viability assay (SRB) in JIMT-1. Format: cell-based. As to conditions: 72 hours after treatment, read-out: JIMT1 IC50. As for the experimental part:
(§1) Human colon carcinoma cell line HCT-116 was a kind gift from Igor Ronninson from University of South Caroli, Columbia, USA. Human breast cancer cell line, JIMT-1 was kindly provided by Ali Osmay Güre from Bilkent University, Ankara, Turkey. Cells were cultured in Dulbecco's modified Eagle's medium (Lonza, NJ, USA), supplemented with 10% fetal bovine serum (FBS, Lonza), 1% non-essential amino acid (NEAA), 2 mM L-glutamine (Sigma Aldrich, MO, USA) and 50 U/ml penicillin/streptomycin (P/S). HCT-116 cells were cultured in McCoy's 5A (modified) (Gibco) medium supplemented with FBS, NEAA, L-glutamine and P/S. All cell lines were tested regularly using MycoAlert Mycoplasma Detection Kit (Lonza). The cumulative length of the cells between thawing and use in the experiments was less than 20 passages.
(§2) Newly synthesized molecules were dissolved in 100% DMSO to yield a stock concentration of 10 mM. For cell viability assay, JIMT-1 (3×10^3 cells/well) and HCT-116 (4×10^3), cells were seeded into 96-well plates, and 24 hours after cell seeding inhibitor treatments were performed at different concentrations. Cell viability was measured 72 hours after treatment with Sulforhodamine B (SRB, Sigma Aldrich) assay as recommended by the manufacturer.

Test [2] relates to HCT-116 human colon carcinoma cell line. Briefly: Cell viability assay (SRB) in HCT-116. As to conditions: 72 hours after treatment, read-out: HCT116 IC50. Format: cell-based. The protocol: as §1, §2

pIC50: −log10 of the molar value.

As usually defined, the pIC50 is the negative decadic logarithm of the IC50, by convention in mol/L. As for `COc1ccc(-c2cc(Nc3ccnc(N4CCOC(C)C4)n3)[nH]n2)c(F)c1` (stereo not drawn) [Compound 137, N-(3-(2-fluoro-4-methoxyphenyl)-1H-pyrazol-5-yl)-2-(2-methylmorpholino)pyrimidin-4-amine], the negative-log IC50 (pIC50) was 7.62 in test [1] and 7.23 in test [2].

Consider `COc1ccc(-c2cc(Nc3ccnc(N4CCOCC4C)n3)[nH]n2)c(F)c1` (stereo not drawn) [Compound 138, N-(3-(2-fluoro-4-methoxyphenyl)-1H-pyrazol-5-yl)-2-(3-methylmorpholino)pyrimidin-4-amine], for which the pIC50 in test [1] is 7.82; in test [2] it was 7.28.

As for `COc1ccc(-c2cc(Nc3ccnc(N4CCOC(C(F)(F)F)C4)n3)[nH]n2)c(F)c1` (stereo not drawn) [Compound 139, N-(3-(2-fluoro-4-methoxyphenyl)-1H-pyrazol-5-yl)-2-(2-(trifluoromethyl)morpholino)pyrimidin-4-amine], the pIC50 in test [1] is 7.04; in test [2], 6.84.

Turning to `COc1ccc(-c2cc(Nc3ccnc(N4CC5COCC5C4)n3)[nH]n2)c(F)c1` (stereo not drawn) [Compound 140, N-(3-(2-fluoro-4-methoxyphenyl)-1H-pyrazol-5-yl)-2-(tetrahydro-1H-furo[3,4-c]pyrrol-5(3H)-yl)pyrimidin-4-amine], the pIC50 in test [1] is 6.97; in test [2], 6.34.

Consider `COc1ccc(-c2cc(Nc3ccnc(N4CC5CC5C4)n3)[nH]n2)c(F)c1` (stereo not drawn) [Compound 141, 2-(3-azabicyclo[3.1.0]hexan-3-yl)-N-(3-(2-fluoro-4-methoxyphenyl)-1H-pyrazol-5-yl)pyrimidin-4-amine], for which the pIC50 in test [1] is 7.39; in test [2] it was 6.79.

With `COc1ccc(-c2cc(Nc3ccnc(N4CCC5(CCC5)CC4)n3)[nH]n2)c(F)c1` [Compound 142, N-(3-(2-fluoro-4-methoxyphenyl)-1H-pyrazol-5-yl)-2-(7-azaspiro[3.5]nonan-7-yl)pyrimidin-4-amine], the pIC50 in test [1] was 6.58; in test [2], 5.92.

Turning to `COc1ccc(-c2cc(Nc3ccnc(N4CCC(C)(C)CC4)n3)[nH]n2)c(F)c1` [Compound 143, 2-(4,4-dimethylpiperidin-1-yl)-N-(3-(2-fluoro-4-methoxyphenyl)-1H-pyrazol-5-yl)pyrimidin-4-amine], the negative logarithm of the IC50 (pIC50) in test [1] was 6.37; in test [2] it was 6.00.

As to `COc1ccc(-c2cc(Nc3ccnc(N4CCC5(CC4)CC5)n3)[nH]n2)c(F)c1` [Compound 144, N-(3-(2-fluoro-4-methoxyphenyl)-1H-pyrazol-5-yl)-2-(6-azaspiro[2.5]octan-6-yl)pyrimidin-4-amine], the negative logarithm of the IC50 (pIC50) in test [1] was 6.92; in test [2], 6.48.

For the compound `COc1ccc(-c2cc(Nc3ccnc(N4C5CCC4CC(C)C5)n3)[nH]n2)c(F)c1` (stereo not drawn) [Compound 145, N-(3-(2-fluoro-4-methoxyphenyl)-1H-pyrazol-5-yl)-2-(3-methyl-8-azabicyclo[3.2.1]octan-8-yl)pyrimidin-4-amine], the pIC50 in test [1] was 7.00; in test [2] it was 6.55.

`COc1ccc(-c2cc(Nc3ccnc(N4CC5(COC5)C4)n3)[nH]n2)c(F)c1` [Compound 146, N-(3-(2-fluoro-4-methoxyphenyl)-1H-pyrazol-5-yl)-2-(2-oxa-6-azaspiro[3.3]heptan-6-yl)pyrimidin-4-amine]: the negative logarithm of the IC50 (pIC50) in test [1] is 6.32; in test [2], 6.27.

Consider `COc1ccc(-c2cc(Nc3ccnc(N4CCN(C)CC4)n3)[nH]n2)c(F)c1` [Compound 148, N-(3-(2-fluoro-4-methoxyphenyl)-1H-pyrazol-5-yl)-2-(4-methylpiperazin-1-yl)pyrimidin-4-amine], for which the results for the negative logarithm of the IC50 (pIC50) in test [1] and in test [2] were 6.67 and 6.01, respectively.

Take `COc1ccc(-c2cc(Nc3ccnc(N4C[C@@H](C)O[C@H](C)C4)n3)[nH]n2)c(F)c1` [Compound 149, 2-((2R,6R)-2,6-dimethylmorpholino)-N-(3-(2-fluoro-4-methoxyphenyl)-1H-pyrazol-5-yl)pyrimidin-4-amine]: the pIC50 was 7.19 in test [1] and 6.94 in test [2].

For the origin of these results see patent US20240374590A1, “COMPOSITIONS AND METHODS FOR TREATING CANCER” (A2A PHARMACEUTICALS, INC., priority 2021, published 2024).
